Experimental findings from the NIST ThermoML archive (doi:10.1016/j.fluid.2012.12.022) are described below.

Data set [1] in a line: refractive index (Na D-line) (dimensionless). The following applies: 298.15 K; 101.33 kPa; Liquid; Standard Abbe refractometry.
For data set [2] the following is noted: Liquid; for Normal boiling temperature: Distillation; for mass density: 298.15 K, 101.33 kPa, Vibrating tube method.

Numbers after ± are expanded uncertainties.

In the case of `OCCO` [1,2-ethanediol], in data set [1], the refractive index turned out to be 1.4308 ± 0.0005. Besides, the Normal boiling temperature in data set [2] turned out to be 197.12 ± 0.41 °C.

On to `CCO` [ethanol], for which the refractive index in data set [1] amounted to 1.3594 ± 0.0005. Also, in data set [2], the mass density is 785.18 ± 0.15 kg/m3 and the Normal boiling temperature amounted to 77.90 ± 0.41 °C.

Take `OCC(O)CO` [glycerol]: the refractive index in data set [1] turned out to be 1.4726 ± 0.0005. Moreover, in data set [2], the mass density turned out to be 1258.52 ± 0.19 kg/m3 and the Normal boiling temperature came out at 289.90 ± 0.41 °C.

In the case of `O` [water], the refractive index in data set [1] came out at 1.3325 ± 0.0005. The Normal boiling temperature in data set [2] is 100.00 ± 0.41 °C.
